Test results reported in US4609673A, “Carboxylic acid derivatives, processes for the preparation thereof and pharmaceutical compositions containing them” (Boehringer Mannheim GmbH, priority 1984, dated 1986).

Columns and labels:
[1] = test system: Rat hepatocytes; test: 14C-acetate incorporation into cholesterol (cholesterol biosynthesis) in rat hepatocytes; type: cell-based; settings: Hepatocyte, end concentration about 10^-5 M, 48 h incubation, DMSO, related to solvent treated control
Experimental: Rat hepatocytes were isolated according to Berry and Friend (J. Cell Biol., 43, 506-520 (1969)) and cultured as described by Davis et al. (J. Biol. Chem., 254, 2010-2016 (1979)). 2-^14 C-Acetate was used as a precursor for determination of the cholesterol biosynthesis. Newly synthetized cholesterol was determined by liquid scintillation spectrometry after extraction of radiolabelled sterols from the culture medium (Can. J. Biochem. Physiol., 37, 912-917 (1959)). The test compounds were dissolved in dimethylsulfoxide. 1 μl of this solution was given to 1 ml of the culture medium. The percentage of inhibition of ^14 C-acetate incorporation is related to a solvent treated control.
The compounds listed in the following table were tested with respect to their effect on the rate hepatocytes according to the method mentioned above. The compounds were dissolved in DMSO. 1 μl of this solution was added to 1 ml of the culture medium.
The end concentration was about 10^-5 M, the period of the incubation was 48 h. The ^14 C-acetate incorporation in cholesterol was determined.

[2] = test system: citrate synthase; settings: Angew. Chem., 92, 133/1980; cited from earlier work
[3] = test system: HMG-CoA-reductase; settings: cited from earlier work
[4] = test system: HMG-CoA synthase; settings: J. Biol. Chem., 257, 2842/1982; cited from earlier work

| SMILES | inhibition at 10 µM [1] [%] | also measured |
| --- | --- | --- |
| CC(CC(=O)NCCSCCC(C)(C)CC(=O)O)NC(=O)c1ccccc1 (stereo not drawn) [Example 15d, 9,13-diaza-10,14-dioxo-14-phenyl-6-thia-3,3,12-trimethyltetradecanoicacid] | 12 | – |
| CC(C)(COP(=O)(O)OP(=O)(O)OC[C@H]1O[C@@H](n2cnc3c(N)ncnc32)[C@H](O)[C@@H]1OP(=O)(O)O)[C@@H](O)C(=O)NCCC(=O)NCCSCCC(O)(CC(=O)O)C(=O)O (stereo partly drawn) [3,4-dicarboxy-3-hydroxybutylcoenzyme A] | – | inhibiting action on the enzyme citrate synthase (in words) [2]: exerts an inhibiting action |
| CC(O)(CCSCCNC(=O)CCNC(=O)[C@H](O)C(C)(C)COP(=O)(O)OP(=O)(O)OC[C@H]1O[C@@H](n2cnc3c(N)ncnc32)[C@H](O)[C@@H]1OP(=O)(O)O)CC(=O)O (stereo partly drawn) [3-hydroxy-3-methyl-4-carboxybutyl-coenzyme A] | – | inhibiting action on the enzyme HMG-CoA-reductase (in words) ([3]; FEBS Letters, 128, 145/1981): possesses an inhibiting action |
| CCOC(=O)CC(C)(C)CCSCCNC(=O)CCNC(=O)C(O)C(C)(C)CO (stereo not drawn) [Example 11, 9,13-Diaza-15,17-dihydroxy-10,14-dioxo-3,3,16,16-tetramethyl-6-thiaheptadecanoic acid ethyl ester] | 28 | – |
| CC(O)(CCSCCNC(=O)CCNC(=O)C(O)C(C)(C)CO)CC(=O)O (stereo not drawn) [Example 2, 9,13-Diaza-10,14-dioxo-6-thia-3,15,17-trihydroxy-3,16,16-trimethylheptadecanoic acid] | 33 | – |
| O=C(O)CCCCSCCNC(=O)CNCc1ccccc1 [Example 16, 9,12-Diaza-10-oxo-13-phenyl-6-thiatridecanoic acid] | 10 | – |
| CC(=O)CCSCCNC(=O)CCNC(=O)[C@H](O)C(C)(C)COP(=O)(O)OP(=O)(O)OC[C@H]1O[C@@H](n2cnc3c(N)ncnc32)[C@H](O)[C@@H]1OP(=O)(O)O [3-oxobutyl-coenzyme A] | – | substrate for HMG-CoA synthase (in words) [4]: substrate |
| CC[C@H](C)C(=O)O[C@H]1CCC=C2C=C[C@H](C)[C@H](CC[C@@H]3C[C@@H](O)CC(=O)O3)[C@H]21 [Compactin, 2-Methylbutanoic acid 1,2,3,7,8,8α-hexahydro-7-methyl-8-[2-(tetrahydro-4-hydroxy-6-oxo-2H-pyran-2-yl)ethyl]-1-naphthalenyl ester] | 59 | inhibitor of HMG-CoA reductase (in words) ([3]; comparison compound): potent inhibitor |
